Results reported in article PMC10786919, “Design-rules for stapled peptides with in vivo activity and their application to Mdm2/X antagonists” (Nature Communications, 2024).
pEC50: −log10 of the molar value. Where two headings read alike, the source gives them in different places. Positions of bridges follow the written chain, without caps; N, C: chain ends. Non-standard residues stand in square brackets, D forms with d. Residues, ends and D or L forms follow the SMILES beside them. 2Nal = N[C@@H](Cc1ccc2ccccc2c1)C(=O)O; tBuAla = CC(C)(C)C[C@H](N)C(=O)O; R8 = C=CCCCCCC[C@@](C)(N)C(=O)O; R5 = C=CCCC[C@@](C)(N)C(=O)O; S5 = C=CCCC[C@](C)(N)C(=O)O; Aib = CC(C)(N)C(=O)O; Ahx = NCCCCCC(=O)O

Experiments:
Type in all cases: cell-based
[1] = Lactate dehydrogenase (LDH) release assay; conditions: LDH: Cytotoxicity assay EC50
How it was run: (§1)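 A p53 β-lactamase reporter HCT116 line, 8000 cells per well, is exposed to test compounds at 0.5% final DMSO and scored for LDH leakage.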

[2] = test system: HCT116 cells; assay: Lactate dehydrogenase (LDH) release assay
How it was run: as §1

[3] = test system: p53 responsive β-lactamase reporter in HCT116 cells; assay: cells; conditions: read-out: p53 reporter assay EC50
Procedure: HCT116 cells were stably transfected with a p53 responsive β-lactamase reporter and expanded in McCoy’s 5 A Medium with 10% fetal bovine serum (FBS), Blasticidin, and Penicillin/Streptomycin and then transferred to 1.5 ml freezing vials and stored under liquid nitrogen in growth media containing 5% DMSO. […] The cells were then seeded into a 384-well plate at a density of 8000 cells per well. […] The final working concentration of DMSO was 0.5%. β-lactamase activity was detected using the ToxBLAzer Dual Screen (Invitrogen), as per the manufacturer’s instructions. Measurements were made using the Envision multiplate reader (Perkin–Elmer). […] Measurements were taken a minimum of three times (biological replicates) and values are reported as geometric means of the replicates.

[4] = test system: Jump-In T-REx CHO-K1 BLA cells; assay: cells; conditions: for pEC50: read-out: TETCHO: Counterscreen EC50
Procedure: This assay was based on Jump-In™ T-REx™ CHO-K1 BLA cells containing a stably integrated β-lactamase under the control of an inducible cytomegalovirus (CMV) promoter. Cells were maintained in Dulbecco’s […] Eagle Medium (DMEM) with 10% fetal bovine serum (FBS), Blasticidin, and Penicillin/Streptomycin and then transferred to 1.5 ml freezing vials and stored under liquid nitrogen in growth media containing 5% DMSO. […] Cells were seeded into a 384-well plate at a density of 4000 cells per well. Peptides were then dispensed to each well using a liquid handler, ECHO 555 and incubated for 16 h. The final working concentration of DMSO was 0.5%. β-lactamase activity was detected using the ToxBLAzer Dual Screen (Invitrogen), as per the manufacturer’s instructions. Measurements were carried out using the Envision multiplate reader (Perkin–Elmer). Counterscreen activity was defined as the amount of β-lactamase activity induced by tetracycline. Measurements were taken a minimum of three times (biological replicates) and values are reported as geometric means of the replicates.

| SMILES | pEC50 [1] | LDH: Cytotoxicity assay % Effect [2] | pEC50 ([3]; 0% FBS 4Hr) | TETCHO: Counterscreen % Effect ([4]; 0% FBS 4Hr) | pEC50 ([4]; 0% FBS 4Hr) | pEC50 ([3]; 0% FBS 16Hr) | TETCHO: Counterscreen % Effect ([4]; 0% FBS 16Hr) |
| --- | --- | --- | --- | --- | --- | --- | --- |
| CC(=O)N[C@@H](CCCNC(=N)N)C(=O)N[C@@H](CCCNC(=N)N)C(=O)N[C@@H](CCCNC(=N)N)C(=O)NCCCCCC(=O)N[C@H](C(=O)N[C@@H](CO)C(=O)N[C@@H](Cc1ccccc1)C(=O)N[C@]1(C)CCCCCCC=CCCC[C@@](C)(C(=O)N[C@@H](CCC(=O)O)C(=O)N[C@@H](CC(N)=O)C(=O)N[C@@H](Cc2ccc(O)cc2)C(N)=O)NC(=O)[C@H](CC(C)C)NC(=O)[C@H](CC(C)C)NC(=O)[C@H](C)NC(=O)[C@H](Cc2c[nH]c3ccccc23)NC(=O)[C@H](Cc2ccc(O)cc2)NC(=O)[C@H](CCC(=O)O)NC1=O)[C@@H](C)O [MP-012] (Ac-RRR[Ahx]TSF[R8]EYWALL[S5]ENY-NH2; staple 8-15) | < 4.30 | 36.73% | 4.47 | 23.79% | < 4.30 | – | – |
| CC(=O)N[C@H](C(=O)N[C@@H](CO)C(=O)N[C@@H](Cc1ccccc1)C(=O)N[C@]1(C)CCCC=CCCC[C@](C)(C(=O)N[C@@H](CC(C)C)C(=O)N[C@@H](CC(C)C)C(=O)N2CCC[C@H]2C(N)=O)NC(=O)[C@H](Cc2c[nH]c3ccccc23)NC(=O)[C@H](Cc2ccc(O)cc2)NC(=O)[C@H](CCC(=O)O)NC1=O)[C@@H](C)O [MP-1174] (Ac-TSF[R5]EYW[R5]LLP-NH2; staple 4-8) | < 4.30 | 2.374% | 4.73 | 7.183% | < 4.30 | – | – |
| CC(=O)N[C@H](C(=O)N[C@@H](CO)C(=O)N[C@@H](Cc1ccccc1)C(=O)N[C@]1(C)CCCCCCC=CCCC[C@@](C)(C(=O)N[C@@H](CO)C(=O)N[C@@H](C)C(=O)N[C@@H](C)C(=O)N[C@@H](CCC(=O)O)C(N)=O)NC(=O)[C@H](CC(C)(C)C)NC(=O)[C@H](CC(C)C)NC(=O)[C@H](C)NC(=O)[C@H](Cc2c[nH]c3ccccc23)NC(=O)[C@H](Cc2ccc(O)cc2)NC(=O)[C@H](CCC(=O)O)NC1=O)[C@@H](C)O [MP-143] (Ac-TSF[R8]EYWAL[tBuAla][S5]SAAE-NH2; staple 4-11) | < 4.30 | 5.215% | 5.05 | 0.6237% | < 4.30 | – | – |
| CC(=O)N[C@@H](CCCNC(=N)N)C(=O)N[C@@H](CCCNC(=N)N)C(=O)N[C@@H](CCCNC(=N)N)C(=O)NCCCCCC(=O)N[C@H](C(=O)N[C@@H](CO)C(=O)N[C@@H](Cc1ccccc1)C(=O)N[C@]1(C)CCCCCCC=CCCC[C@@](C)(C(=O)N[C@@H](CCC(=O)O)C(=O)N[C@@H](CC(N)=O)C(=O)N[C@@H](Cc2ccccc2)C(N)=O)NC(=O)[C@H](CC(C)C)NC(=O)[C@H](CC(C)C)NC(=O)[C@H](C)NC(=O)[C@H](Cc2c[nH]c3ccccc23)NC(=O)[C@H](Cc2ccc(O)cc2)NC(=O)[C@H](CCC(=O)O)NC1=O)[C@@H](C)O [MP-2009] (Ac-RRR[Ahx]TSF[R8]EYWALL[S5]ENF-NH2; staple 8-15) | < 4.30 | 32.46% | 5.01 | 68.36% | 4.78 | – | – |
| CC(=O)N[C@H](C(=O)N[C@@H](CO)C(=O)N[C@@H](Cc1ccc2ccccc2c1)C(=O)NC(C)(C)C(=O)N[C@@H](CCC(=O)O)C(=O)N[C@@H](Cc1ccc(O)cc1)C(=O)N[C@@H](Cc1c[nH]c2ccccc12)C(=O)N[C@@H](C)C(=O)N[C@@H](CC(C)C)C(=O)N[C@@H](CC(C)C)C(=O)NC(C)(C)C(N)=O)[C@@H](C)O [MP-161] (Ac-TS[2Nal][Aib]EYWALL[Aib]-NH2) | < 4.30 | -0.5798% | 5.18 | 26.11% | 4.71 | – | – |
| CC(=O)N[C@@H](CCCCN)C(=O)NCCCCCC(=O)N[C@H](C(=O)N[C@@H](CO)C(=O)N[C@@H](Cc1ccccc1)C(=O)N[C@]1(C)CCCCCCC=CCCC[C@@](C)(C(=O)N[C@@H](CCC(=O)O)C(=O)N[C@@H](CC(N)=O)C(=O)N[C@@H](Cc2ccccc2)C(N)=O)NC(=O)[C@H](CC(C)C)NC(=O)[C@H](CC(C)C)NC(=O)[C@H](C)NC(=O)[C@H](Cc2c[nH]c3ccccc23)NC(=O)[C@H](Cc2ccc(O)cc2)NC(=O)[C@H](CCC(=O)O)NC1=O)[C@@H](C)O [MP-5365] | – | – | 5.45 | 4.41% | < 4.30 | 5.66 | 1.46% |
| CC(=O)N[C@@H](CCCCN)C(=O)N[C@@H](CCCCN)C(=O)NCCCCCC(=O)N[C@H](C(=O)N[C@@H](CO)C(=O)N[C@@H](Cc1ccccc1)C(=O)N[C@]1(C)CCCCCCC=CCCC[C@@](C)(C(=O)N[C@@H](CCC(=O)O)C(=O)N[C@@H](CC(N)=O)C(=O)N[C@@H](Cc2ccccc2)C(N)=O)NC(=O)[C@H](CC(C)C)NC(=O)[C@H](CC(C)C)NC(=O)[C@H](C)NC(=O)[C@H](Cc2c[nH]c3ccccc23)NC(=O)[C@H](Cc2ccc(O)cc2)NC(=O)[C@H](CCC(=O)O)NC1=O)[C@@H](C)O [MP-5363] (Ac-KK[Ahx]TSF[R8]EYWALL[S5]ENF-NH2; staple 7-14) | – | – | 5.47 | 48.32% | < 4.30 | 5.49 | 4.17% |
| CC(=O)N[C@H](C(=O)N[C@@H](CO)C(=O)N[C@@H](CC(C)C)C(=O)N[C@]1(C)CCCCCCC=CCCC[C@@](C)(C(N)=O)NC(=O)[C@H](Cc2c[nH]c3ccccc23)NC(=O)[C@H](CC(C)C)NC(=O)[C@H](C)NC(=O)[C@H](Cc2ccccc2)NC(=O)[C@H](Cc2ccc(O)cc2)NC(=O)[C@H](CCC(=O)O)NC1=O)[C@@H](C)O [MP-2040] (Ac-TSL[R8]EYFALW[S5]-NH2; staple 4-11) | < 4.30 | 24.89% | 5.13 | – | – | – | – |
| CC(=O)N[C@H](C(=O)N[C@@H](CO)C(=O)N[C@@H](Cc1ccccc1)C(=O)N[C@]1(C)CCCC=CCCCCCC[C@@](C)(C(N)=O)NC(=O)[C@H](CC(C)C)NC(=O)[C@H](CC(C)C)NC(=O)[C@H](C)NC(=O)[C@H](Cc2c[nH]c3ccccc23)NC(=O)[C@H](Cc2ccc(O)cc2)NC(=O)[C@H](CCC(=O)O)NC1=O)[C@@H](C)O [MP-035] | < 4.30 | 37.58% | 5.06 | – | – | – | – |
| CC(=O)N[C@@H](CCCNC(=N)N)C(=O)N[C@@H](CCCNC(=N)N)C(=O)NCCCCCC(=O)N[C@H](C(=O)N[C@@H](CO)C(=O)N[C@@H](Cc1ccccc1)C(=O)N[C@]1(C)CCCCCCC=CCCC[C@@](C)(C(=O)N[C@@H](CCC(=O)O)C(=O)N[C@@H](CC(N)=O)C(=O)N[C@@H](Cc2ccccc2)C(N)=O)NC(=O)[C@H](CC(C)C)NC(=O)[C@H](CC(C)C)NC(=O)[C@H](C)NC(=O)[C@H](Cc2c[nH]c3ccccc23)NC(=O)[C@H](Cc2ccc(O)cc2)NC(=O)[C@H](CCC(=O)O)NC1=O)[C@@H](C)O [MP-037] (Ac-RR[Ahx]TSF[R8]EYWALL[S5]ENF-NH2; staple 7-14) | < 4.30 | 3.464% | 4.69 | – | – | – | – |
| CC(=O)N[C@H](C(=O)N[C@@H](CO)C(=O)N[C@@H](Cc1ccccc1)C(=O)N[C@]1(C)CCCCCCC=CCCC[C@@](C)(C(N)=O)NC(=O)[C@H](CC(C)C)NC(=O)[C@H](CCCCN)NC(=O)[C@H](CC(C)C)NC(=O)[C@H](Cc2c[nH]c3ccccc23)NC(=O)[C@H](Cc2ccc(O)cc2)NC(=O)[C@H](CCC(=O)O)NC1=O)[C@@H](C)O [MP-034] (Ac-TSF[R8]EYWLKL[S5]-NH2; staple 4-11) | < 4.30 | 3.672% | 4.89 | – | – | – | – |
| CC(=O)N1CCC[C@H]1C(=O)N[C@@H](CCCNC(=N)N)C(=O)N[C@@H](Cc1ccccc1)C(=O)N[C@]1(C)CCCCCCC=CCCC[C@@](C)(C(N)=O)NC(=O)[C@H](CC(C)C)NC(=O)[C@H](CCCNC(=N)N)NC(=O)[C@H](Cc2ccc(O)cc2)NC(=O)[C@H](Cc2c[nH]c3ccccc23)NC(=O)[C@H](Cc2ccc(O)cc2)NC(=O)[C@H](CCC(=O)O)NC1=O [MP-2032] (Ac-PRF[R8]EYWYRL[S5]-NH2; staple 4-11) | < 4.30 | -1.239% | 4.59 | – | – | – | – |
